In patent EP2756852A1, “Heparin-lipidic nanoparticle conjugates” (Centre de Recerca en Salut Internacional de Barcelona, priority 2013, dated 2014):
Entries after “also recorded” stand apart in the source; their conditions may differ.

Columns and labels:
[1] = system: P. falciparum 3D7 strain; test: Plasmodium falciparum growth inhibition assay (parasitemia by blood smear counting or FACS); format: cell-based; conditions: expressed with respect to non-treated pRBC, 48 h, liposomes 50 µM total lipid, primaquine 3 µM final in culture
Procedure: For culture maintenance, parasitemias were kept below 5% late forms by dilution with washed RBCs.
150 µL of this Plasmodium culture was plated in 96-well plates and incubated in the presence of liposomes for 48 h in the conditions described above.
Parasitemia was determined by microscopic counting of blood smears, or by fluorescence-assisted cell sorting (FACS). Smears were fixed in methanol for a few seconds and then stained for ten minutes with Giemsa (Merck Chemicals, Germany) diluted 1:10 in Sorenson's Buffer, pH 7.2. […] Samples were analyzed using an Epics XL flow cytometer (Coulter Corporation, Miami, Florida), set up with the standard configuration. Excitation of the sample was done using a standard 488 nm air-cooled argon-ion laser at 15 mW power. Forward scatter and side scatter were used to gate the RBC population. […] The single-cell population was selected on a forward-side scatter scattergram, and the fluorescence from this population was analyzed. Parasitemia was expressed as the number of parasitized cells per 100 erythrocytes.
Parasitemia was determined by microscopic counting of blood smears, or by fluorescence-assisted cell sorting (FACS).

[2] = system: healthy cells; test: Unspecific cytotoxicity assay (WST-1); format: cell-based; conditions: DOTAP concentration up to 200 µM; 24 or 48 h at 37°C; WST-1, absorbance at 440 nm
Procedure: Cells were seeded in 96-well plates at a density of 5000 cells/100 µl/well, and incubated for 24 hours at 37°C in Medium 199 with Earle's Salts, supplemented with L-glutamine and FBS (PAA Laboratories GmbH). After that time the medium was carefully removed with a pipette and 90 µL of new medium (without FBS in this case) were added, followed by 10 µL of the sample to be analysed, which consisted of a solution of DOTAP 200 µM in PBS. It is advisable to prepare the sample dilutions in a 9:1 proportion (9 µl media:1 µl sample). After incubating for either 24 or 48 h at 37°C, 10 µL of WST-1 reagent were added, and after incubating for 1 h at 37°C absorbance at 440 nm was measured.

Row | Structure (SMILES) | parasitemia ([1]; Example 1, FIG. 2) [%] | parasitemia ([1]; Example 2, FIG. 3) [%] | parasitemia ([1]; Example 3, FIG. 4) [%] | cytotoxicity [2]
1 | COc1cc(NC(C)CCCN)c2ncccc2c1 (stereo not shown) [PQ, primaquine] | 24.8 | 45.8 | 46.4 | 
2 | CCCCCCCC/C=C\CCCCCCCC(=O)OCC(C[N+](C)(C)C)OC(=O)CCCCCCC/C=C\CCCCCCCC (stereo not shown) [DOTAP, 1,2-dioleoyl-3-trimethylammonium-propane] |  |  |  | not toxic; also recorded: not observed
